# Measurements: patent US9828385B2, “Spiro-oxazolones” (Hoffmann-La Roche Inc., priority 2014, dated 2017)
# Target: T1, human V1a receptor (Homo sapiens, UniProt P37288)
# T1 construct: expressed in transfected cells; host or cells: HEK293 cells, transiently transfected; cell membranes
# Assay: human V1a receptor binding studies (3H-Vasopressin, SPA beads)
# Conditions: membranes of HEK293 cells transiently transfected with human V1a receptor, Ki by Cheng-Prussoff from IC50, read-out: pKi hV1a (converted)
# How it was run: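 Membranes from transiently transfected HEK293 cells expressing cloned human V1a receptor, on yttrium silicate SPA beads, competed against 4 nM 3H-vasopressin (added stock concentration) in Tris buffer with NaCl, KCl, CaCl2, MgCl2 for 1 h at room temperature. Nonspecific binding with cold vasopressin; IC50 by nonlinear fit, Ki via Cheng-Prusoff.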
# T1 sequence (P37288 whole entry): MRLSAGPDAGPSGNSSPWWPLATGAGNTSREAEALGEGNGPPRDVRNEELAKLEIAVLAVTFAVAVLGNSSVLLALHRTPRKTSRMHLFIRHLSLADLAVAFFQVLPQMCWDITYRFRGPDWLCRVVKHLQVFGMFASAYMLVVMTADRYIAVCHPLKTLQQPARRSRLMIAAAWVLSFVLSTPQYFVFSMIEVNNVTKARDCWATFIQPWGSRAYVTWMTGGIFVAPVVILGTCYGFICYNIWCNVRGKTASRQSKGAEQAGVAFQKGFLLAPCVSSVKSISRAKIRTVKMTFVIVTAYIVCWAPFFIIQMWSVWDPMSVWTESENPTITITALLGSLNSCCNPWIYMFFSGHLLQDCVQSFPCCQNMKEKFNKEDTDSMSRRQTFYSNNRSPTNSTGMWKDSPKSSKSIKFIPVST
row,Structure (SMILES),Ki
1,"O=C1N=C(N2CCC3(CC2)OCc2ccccc23)OC12CCCCC2 [Example 123, 2-(1′H,3H-Spiro[2-benzofuran-1,4′-piperidin]-1′-yl)-1-oxa-3-azaspiro[4.5]dec-2-en-4-one]",10 nM
2,"O=C1OC2(CCN(C3=NC(=O)C4(CCCCC4)O3)CC2)c2ccccc21 [Example 124, 1′-(4-Oxo-1-oxa-3-azaspiro[4.5]dec-2-en-2-yl)-3H-spiro[2-benzofuran-1,4′-piperidin]-3-one]",158 nM
3,"O=C1N=C(N2CCC3(CC2)OCc2ccccc23)OC12CCCOC2 (stereo not drawn) [Example 125, 2-(1′H,3H-Spiro[2-benzofuran-1,4′-piperidin]-1′-yl)-1,7-dioxa-3-azaspiro[4.5]dec-2-en-4-one]",200 nM
4,"O=C1N=C(N2CCC3(CC2)OCc2ccccc23)OC12CCC(F)(F)CC2 [Example 130, 8,8-Difluoro-2-(1′H,3H-spiro[2-benzofuran-1,4′-piperidin]-1′-yl)-1-oxa-3-azaspiro[4.5]dec-2-en-4-one]",6.31 nM
5,"O=C1OC2(CCN(C3=NC(=O)C4(CCC(F)(F)CC4)O3)CC2)c2ccccc21 [Example 131, 1′-(8,8-Difluoro-4-oxo-1-oxa-3-azaspiro[4.5]dec-2-en-2-yl)-3H-spiro[2-benzofuran-1,4′-piperidin]-3-one]",50.1 nM
6,"O=C1N=C(N2CCC3(CC2)OCc2ccccc23)OC12CCSCC2 [Example 132, 2-(1′H,3H-Spiro[2-benzofuran-1,4′-piperidin]-1′-yl)-1-oxa-8-thia-3-azaspiro[4.5]dec-2-en-4-one]",15.8 nM
7,"O=C1N=C(N2CCC3(CC2)OCc2ccccc23)OC12CCS(=O)(=O)CC2 [Example 133, 2-(1′H,3H-Spiro[2-benzofuran-1,4′-piperidin]-1′-yl)-1-oxa-8-thia-3-azaspiro[4.5]dec-2-en-4-one 8,8-dioxide]",126 nM
8,"CC(C)(C)OC(=O)N1CCC2(CC1)OC(N1CCC3(CC1)OCc1ccccc13)=NC2=O [Example 134, tert-Butyl 4-oxo-2-(1′H,3H-spiro[2-benzofuran-1,4′-piperidin]-1′-yl)-1-oxa-3,8-diazaspiro[4.5]dec-2-ene-8-carboxylate]",158 nM
9,"O=C1N=C(N2CCC3(CC2)OCc2ccccc23)OC12CCN(Cc1ccccc1)CC2 [Example 135, 8-Benzyl-2-(1′H,3H-spiro[2-benzofuran-1,4′-piperidin]-1′-yl)-1-oxa-3,8-diazaspiro[4.5]dec-2-en-4-one]",398 nM

# The next lines start with the values.
row,Ki,Structure (SMILES)
1,316 nM,"O=C1N=C(N2CCC3(CC2)OCc2ccccc23)OC12CCN(CC(F)F)CC2 [Example 136, 8-(2,2-Difluoroethyl)-2-(1′H,3H-spiro[2-benzofuran-1,4′-piperidin]-1′-yl)-1-oxa-3,8-diazaspiro[4.5]dec-2-en-4-one]"
2,1.58 nM,"CC(C)(C)OC(=O)N1Cc2ccccc2CC2(C1)OC(N1CCC3(CC1)OCc1ccccc13)=NC2=O (stereo not drawn) [Example 137, tert-Butyl 4′-oxo-2′-(1′H,3H-spiro[2-benzofuran-1,4′-piperidin]-1′-yl)-1,5-dihydro-4′H-spiro[2-benzazepine-4,5′-[1,3]oxazole]-2(3H)-carboxylate]"
3,6.31 nM,"O=C1N=C(N2CCC3(CC2)OCc2ccccc23)OC12CNCc1ccccc1C2 (stereo not drawn) [Example 138, 2′-(1′H,3H-Spiro[2-benzofuran-1,4′-piperidin]-1′-yl)-1,2,3,5-tetrahydro-4′H-spiro[2-benzazepine-4,5′-[1,3]oxazol]-4′-one]"
4,1.26 nM,"CN1Cc2ccccc2CC2(C1)OC(N1CCC3(CC1)OCc1ccccc13)=NC2=O (stereo not drawn) [Example 139, 2-Methyl-2′-(1′H,3H-spiro[2-benzofuran-1,4′-piperidin]-1′-yl)-1,2,3,5-tetrahydro-4′H-spiro[2-benzazepine-4,5′-[1,3]oxazol]-4′-one]"
5,0.631 nM,"O=C1N=C(N2CCC3(CC2)OCc2ccccc23)OC12CC1CCCCCC1C2 (stereo not drawn) [Example 140, 2′-(1′H,3H-Spiro[2-benzofuran-1,4′-piperidin]-1′-yl)-3,3a,4,5,6,7,8,8a-octahydro-1H,4′H-spiro[azulene-2,5′-[1,3]oxazol]-4′-one]"
6,0.501 nM,"O=C1N=C(N2CCC3(CC2)OCc2ccccc23)O[C@]12C[C@H]1CCCC[C@H]1C2 [Example 141, 2′-(1′H,3H-Spiro[2-benzofuran-1,4′-piperidin]-1′-yl)-1,3,3a,4,5,6,7,7a-octahydro-4′H-spiro[indene-2,5′-[1,3]oxazol]-4′-one]"
7,158 nM,"O=C1C=C2CC3(CC2C1)OC(N1CCC2(CC1)OCc1ccccc12)=NC3=O (stereo not drawn) [Example 142, 2-(1′H,3H-Spiro[2-benzofuran-1,4′-piperidin]-1′-yl)-3a′,4′-dihydro-1′H,4H-spiro[1,3-oxazole-5,2′-pentalene]-4,5′(3′H)-dione]"
8,100 nM,"O=C1C[C@@H]2CC3(C[C@@H]2C1)OC(N1CCC2(CC1)OCc1ccccc12)=NC3=O (stereo partly drawn) [Example 143, 2-(1′H,3H-Spiro[2-benzofuran-1,4′-piperidin]-1′-yl)-3a′,4′,6′,6a′-tetrahydro-1′H,4H-spiro[1,3-oxazole-5,2′-pentalene]-4,5′(3′H)-dione]"
9,79.4 nM,"O=C1N=C(N2CCC3(CC2)OCc2ccccc23)OC12C[C@H]1COC[C@H]1C2 (stereo partly drawn) [Example 144, 2′-(1′H,3H-Spiro[2-benzofuran-1,4′-piperidin]-1′-yl)-3a,4,6,6a-tetrahydro-1H,3H,4′H-spiro[cyclopenta[c]furan-5,5′-[1,3]oxazol]-4′-one]"
10,3.98 nM,"O=C1N=C(N2CCC3(CC2)OCc2ccccc23)O[C@]12C[C@H]1CC(F)(F)C[C@H]1C2 [Example 146, 5′,5′-Difluoro-2-(1′H,3H-spiro[2-benzofuran-1,4′-piperidin]-1′-yl)-3′,3a′,4′,5′,6′,6a′-hexahydro-1′H,4H-spiro[1,3-oxazole-5,2′-pentalen]-4-one]"
11,158 nM,"O=C1N=C(N2CCC3(CC2)OCc2ccccc23)OC12C[C@@H]1OS(=O)O[C@@H]1C2 (stereo partly drawn) [Example 147, 2′-(1′H,3H-Spiro[2-benzofuran-1,4′-piperidin]-1′-yl)-3a,4,6,6a-tetrahydro-4′H-spiro[cyclopenta[d][1,3,2]dioxathiole-5,5′-[1,3]oxazol]-4′-one 2-oxide]"
12,0.251 nM,"O=C1N=C(N2CCC3(CC2)c2ccccc2CS3(=O)=O)OC12Cc1ccccc1C2 [Example 150, 2′-(2,2-Dioxido-1′H,3H-spiro[2-benzothiophene-1,4′-piperidin]-1′-yl)-1,3-dihydro-4′H-spiro[indene-2,5′-[1,3]oxazol]-4′-one]"
